According to patent publication US20020103261A1, “Compositions for injection or intravenous administration for the treatment of internal infection or inflammation in humans and animals” (priority 2000, published 2002):

Legend:
Solubility in lipids = type: physicochemical
[1] = inactive metabolites after enzymatic degradation; cited from earlier work

Cc1ccc(C(C)C)cc1O [isopropyl-o-cresol, 5-isopropyl-2-methylphenol]
solubility in lipids (Solubility in lipids): soluble in lipids
metabolites excreted in the urine [1]: approx. 90%
metabolites expired from the lungs in the form of CO2 [1]: 10%

Cc1ccc(C(C)C)c(O)c1 [isopropyl-cresol, 5-methyl-2[1-methylethyl]phenol]
metabolites expired from the lungs in the form of CO2 [1]: 10%
